Consider 53 compounds from PubChem BioAssay AID1996.

≈ marks a conversion by molar mass, not a printed value. Where only a bound is given, the exact number is not on record here.

The conditions of this data set: buffer; pH 7.4; 200.0 µM.
A word on the solubility (kinetic): it is solubility judged after dilution from a stock solution rather than from solid. The compound `Cc1cccc(-c2nc(C#N)c(N3CCC(C)CC3)o2)c1` had a solubility (kinetic) of less than 0.2 µg/mL. The figure for `CN1CCN(c2ccc(CNS(=O)(=O)c3ccsc3)cc2)CC1` is 22.7 µg/mL (≈ 64.6 µM); for `COc1ccc(N=C2CCS(=O)(=O)c3sccc32)cc1` it is more than 46.1 µg/mL; for `CC(=O)Nc1cccc(NC(=S)Nc2cccc(Cl)c2Cl)c1` it is 26 µg/mL (≈ 73.4 µM). `O=C(CN1CCCCC1)Nc1scc2c1c(=O)oc1ccccc12`: the kinetic solubility was less than 0.4 µg/mL. `O=c1c2cc(-c3ccccc3)sc2nc2n1CCC2` showed a kinetic solubility of 1.5 µg/mL (≈ 5.59 µM). The figure for `COc1ccccc1CNc1ncccn1.O=C(O)C(=O)O` is 34.4 µg/mL. As for `COc1ccc(C(=O)C[n+]2ccc3ccccc3c2C)cc1.[Br-]`, the solubility (kinetic) was found to be 16.1 µg/mL. Compound `CCc1nc2ccccc2n1CC(=O)NC1CCS(=O)(=O)C1` (stereo not drawn) displayed a solubility (kinetic) of more than 48.2 µg/mL. The compound `Cc1nc(NC(=O)CCN2C(=O)C3CC=CCC3C2=O)sc1C` (stereo not drawn) gave a kinetic solubility of more than 50 µg/mL.

`O=C(NC(=S)NCc1cccnc1)c1ccccc1F`: the kinetic solubility was more than 43.4 µg/mL.

In turn, `Cc1ccccc1CC1(CO)CCCN(C(=O)CCC(F)(F)F)C1` (stereo not drawn) had a kinetic solubility of 48.3 µg/mL (≈ 141 µM). Under `Cc1cc(C)cc(N2C(=O)CSC2c2ccccn2)c1` (stereo not drawn) stands more than 42.7 µg/mL. For `COc1ccccc1CN(C)C(=O)c1cc(C)nc2ccccc12`, the solubility (kinetic) was more than 48.1 µg/mL. Turning to `Cc1ccc(C)c(C(=O)CN2C(=O)NC3(CCCCCCC3)C2=O)c1`, the solubility (kinetic) was 2.6 µg/mL (≈ 7.59 µM). With `O=C(CN1C(=O)NC2(CCCC2)C1=O)NCc1ccc(Cl)cc1`, the solubility (kinetic) was more than 50.4 µg/mL. The figure for `Cc1ccccc1SCC(=O)NCCCn1ccnc1` is 42.9 µg/mL (≈ 148 µM). On to `COc1ccc(OC)c(NC(=O)CCCc2ccccc2)c1`, for which the kinetic solubility came out at 24.5 µg/mL (≈ 81.8 µM). The figure for `CC(=O)c1c(C)[nH]c(C(=O)NNC(=O)c2ccc(C)cc2)c1C` is more than 47 µg/mL; for `Cc1cc(=O)[nH]c(SCC(=O)NCc2ccc3c(c2)OCO3)n1` it is more than 50 µg/mL. Take `COc1ccc2[nH]c(=O)c(CN(C)C(=O)c3cccs3)cc2c1`: the solubility (kinetic) was 12.4 µg/mL (≈ 37.8 µM). For `NS(=O)(=O)c1cccc(Nc2nc3ccccc3nc2NS(=O)(=O)c2ccc(Cl)cc2)c1`, the solubility (kinetic) is 7.4 µg/mL (≈ 15.1 µM). The figure for `CN1CCCN(c2ccc([N+](=O)[O-])cc2)CC1` is more than 35.3 µg/mL; for `Cc1ccc2oc(=O)n(CCOc3ccccc3)c2c1` it is 14.2 µg/mL (≈ 52.7 µM). The figure for `CCOC(=O)c1cnc(-c2ccccc2)nc1Oc1ccc(OC)cc1` is less than 0.4 µg/mL; for `O=C(Cc1cccc2ccccc12)Nc1ccc(O)cc1C(=O)O` it is more than 48.2 µg/mL; for `Cc1cc(NS(=O)(=O)c2cc(Cl)sc2Cl)no1` it is more than 47 µg/mL. The figure for `COc1ccc(C(C)=O)cc1COC(=O)c1cccnc1SC` is less than 0.7 µg/mL; for `O=C(Nc1cccc(OC(=O)N2CCCCC2)c1)N1CCOCC1` it is more than 50 µg/mL; for `N#C/C(=C\c1cccnc1)c1ccc([N+](=O)[O-])cc1` it is 13.1 µg/mL (≈ 52.1 µM). `CN(C)S(=O)(=O)c1cccc(NC(=S)NCc2ccco2)c1` had a kinetic solubility of more than 50.9 µg/mL.

Compound `CCC(=O)Nc1cc(C(F)(F)F)ccc1N1CCCC1` showed a kinetic solubility of 34 µg/mL (≈ 119 µM). The figure for `COc1ccc(N2CCN(C(=O)/C=C/c3ccco3)CC2)cc1` is 10.5 µg/mL (≈ 33.6 µM); for `CC(C)Oc1cccc(OCCN2C(=O)c3ccccc3C2=O)c1` it is 13.8 µg/mL (≈ 42.4 µM). The figure for `O=C(CSCCS(=O)(=O)c1ccc(Cl)cc1)Nc1ccccc1` is 3.5 µg/mL (≈ 9.46 µM). The figure for `O=C(NCC(=O)N1CCOCC1)c1ccc(Cl)c(Cl)c1` is more than 47.6 µg/mL. Turning to `COC(=O)c1sccc1NC(=O)Nc1cccc([N+](=O)[O-])c1`, the kinetic solubility stood at 5.7 µg/mL (≈ 17.7 µM). On to `COc1cc(Br)c(Br)c(Br)c1N`, for which the kinetic solubility was found to be 0.9 µg/mL (≈ 2.5 µM).

With `Cc1ccc(N(CC(=O)N2CCCC2)S(C)(=O)=O)cc1C`, the kinetic solubility is more than 46.6 µg/mL.

The compound `O=C(CNS(=O)(=O)c1ccc(Br)cc1)N1CCN(Cc2ccccc2)CC1` yielded a kinetic solubility of 7.2 µg/mL (≈ 15.9 µM). Under `COCCCn1c(=O)c2sccc2n(Cc2ccccc2C)c1=O` stands more than 51.7 µg/mL. The figure for `Cl.O=C(CN1CCCC1)Nc1ccc(Br)cc1` is more than 47.9 µg/mL; for `CCOC(=O)c1ccc(NC(=O)CCC(=O)NCc2ccco2)cc1` it is 4.7 µg/mL (≈ 13.6 µM). For `CCc1cccc2c(=O)c(C(=O)NCCCOC)c[nH]c12`, the kinetic solubility is more than 43.3 µg/mL. Turning to `COc1ccc(C(=O)c2ccc(-c3ccc(OC)cc3)nc2)cc1`, the solubility (kinetic) was less than 0.7 µg/mL. In the case of `O=CN1CCN(C(=S)NC(=O)c2ccc(Cl)cc2)CC1`, the kinetic solubility came to 44.3 µg/mL (≈ 142 µM). Take `COc1ccc(NC(=S)N2CCN(c3ccccc3)CC2)c(OC)c1`: the kinetic solubility was found to be 2.6 µg/mL (≈ 7.27 µM). The figure for `Cc1ccc(S(=O)(=O)Nc2ccc(F)cc2)cc1C(=O)N1CCOCC1` is more than 56.8 µg/mL; for `CC1(C)Cc2c(C#N)c(N)n(-c3ccccc3)c(=S)c2CO1` it is more than 46.7 µg/mL. Under `COc1ccc(OC)c(C(O)C(C)N)c1.Cl` (stereo not drawn) stands more than 37.2 µg/mL; under `Cc1cccc(C)c1NC(=O)CN1C(=O)C2CC=CCC2C1=O` (stereo not drawn), more than 46.9 µg/mL.

The compound `CCOP(=O)(c1ccccc1)C1(C#N)CC1` (stereo not drawn) gave a solubility (kinetic) of 23 µg/mL (≈ 97.8 µM). Under `COc1ccccc1NC(=O)COC(=O)c1ccccn1` stands more than 42.9 µg/mL.
